This is an account of results in patent US20200172483A1, “HETEROCYCLIC SMALL MOLECULE MODULATORS OF HUMAN STING” (Curadev Pharma Limited, priority 2017, published 2020).

Like-named read-outs stand apart in the source and are kept apart here.

One experiment deals with T1, hSTING (HAQ) (Homo sapiens, UniProt Q86WV6, G230A/H232R/R293Q/R71H).
T1 construct: host or cells: HEK293T
The experiment is described as follows: Luciferase reporter assay in HEK293T-hSTING-Luciferase cells (HAQ polymorph). The experiment is classed as cell-based. To be noted: EC50 range. In a few lines: (§1)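 Clonal HEK293T lines stably expressing the hSTING variant (H232 or HAQ) plus an ISRE/ISG54-driven secreted luciferase reporter were stimulated with compounds for 20 hr. Supernatant luciferase measured by luminescence (Quanti-Luc).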
(In general: A reporter such as luciferase makes a cellular process visible.)

Another experiment has as its target T2, hSTING (H232) (Homo sapiens, UniProt Q86WV6).
T2 construct: host or cells: HEK293T
Briefly: Luciferase reporter assay in HEK293T-hSTING-Luciferase cells (H232/REF polymorph). The experiment is classed as cell-based. The following applies: EC50 range. A digest of the protocol: as §1

The next experiment deals with NF-κB pathway. The experiment is described as follows: Reporter gene expression assay for NFκB axis in THP1-Dual cells (secreted SEAP). To be noted: 20 hr stimulation, QUANTI-Blue SEAP, EC50 range, read-out: THP-NFKB activity. The experiment is classed as cell-based, human. In a few lines:
(§2)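 THP1-Dual cells (THP-1 monocytes with inducible NF-κB-SEAP and IRF-Lucia reporters; 5×10^5 cells) were stimulated with compounds for 20 hr. Secreted SEAP (QUANTI-Blue) and Lucia luciferase (QUANTI-Luc) were then measured in the supernatant. EC50 values are reported as ranges.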

The target in another experiment is T3, WT/R232 STING protein (Homo sapiens, UniProt Q86WV6, H232R).
T3 construct: host or cells: HEK293T
Briefly: Luciferase reporter assay in HEK293T-hSTING-Luciferase cells (R232). The experiment is classed as cell-based. The following applies: 20 hr stimulation, EC50 range. A digest of the protocol: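 Readout is fold-induction over baseline of secreted luciferase, measured by luminescence after 20 hr compound stimulation. Cells: clonally selected HEK293T stably carrying hSTING (R232) and a luciferase reporter under five tandem ISREs fused to an ISG54 minimal promoter.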

The test system of a further experiment is IRF pathway. The experiment is described as follows: Reporter gene expression assay for IRF axis in THP1-Dual cells (secreted Lucia luciferase). The experiment is classed as cell-based, human. To be noted: 20 hr stimulation, QUANTI-Luc, EC50 range, read-out: THP-IRF activity. A digest of the protocol: as §2

T2 sequence (Q86WV6 whole entry): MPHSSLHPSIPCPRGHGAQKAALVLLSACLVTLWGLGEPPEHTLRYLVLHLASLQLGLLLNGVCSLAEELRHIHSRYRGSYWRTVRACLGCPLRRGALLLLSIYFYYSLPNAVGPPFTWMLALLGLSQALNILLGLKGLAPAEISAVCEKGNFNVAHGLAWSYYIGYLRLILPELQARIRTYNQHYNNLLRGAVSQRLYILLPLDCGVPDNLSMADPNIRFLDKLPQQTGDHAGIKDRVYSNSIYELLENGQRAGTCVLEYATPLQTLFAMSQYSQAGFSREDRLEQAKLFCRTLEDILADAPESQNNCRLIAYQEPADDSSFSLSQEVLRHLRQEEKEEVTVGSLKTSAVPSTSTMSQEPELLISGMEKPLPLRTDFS
T3 sequence (Q86WV6 whole entry H232R): as the sequence (Q86WV6 whole entry) above, with H232R counted along it
T1 sequence (Q86WV6 whole entry R71H/G230A/H232R/R293Q): as the sequence (Q86WV6 whole entry) above, with R71H, G230A, H232R, R293Q counted along it

As for `CC1(C#N)C(=O)N(Cc2c(F)cccc2Cl)c2cc(C(=O)NCc3c(F)cc(F)cc3F)ccc21` (centres unmarked) [Example 165, 1-(2-chloro-6-fluorobenzyl)-3-cyano-3-methyl-2-oxo-N-(2,4,6-trifluorobenzyl)indoline-6-carboxamide], the EC50 on hSTING (HAQ) was at most 1 µM; on hSTING (H232), at most 1 µM; in the experiment with NF-κB pathway it was 1 to 10 µM; on WT/R232 STING protein it was at most 1 µM; with IRF pathway it was over 10 µM.
In the case of `CC1(C#N)C(=O)N(Cc2c(F)cccc2Cl)c2cc(C(=O)NCc3c(F)cc(F)cc3F)ccc21` (centres unmarked) [Example 166, 1-(2-chloro-6-fluorobenzyl)-3-cyano-3-methyl-2-oxo-N-(2,4,6-trifluorobenzyl)indoline-6-carboxamide], the EC50 at hSTING (HAQ) was 1 to 10 µM; at hSTING (H232), 1 to 10 µM; in the experiment on NF-κB pathway, over 10 µM; at WT/R232 STING protein, at most 1 µM; with IRF pathway, over 10 µM.
In the case of `C=CCC1(C)C(=O)N(Cc2cc(C)nn2CC)c2cc(C(=O)NCc3c(F)cc(F)cc3F)ccc21` (centres unmarked) [Example 175, 3-allyl-1-((1-ethyl-3-methyl-1H-pyrazol-5-yl)methyl)-3-methyl-2-oxo-N-(2,4,6-trifluorobenzyl)indoline-6-carboxamide], the EC50 on hSTING (HAQ) lay within 1 to 10 µM; at hSTING (H232), 1 to 10 µM; in the experiment on NF-κB pathway (Homo sapiens, THP1-Dual, 20 h) it was 1 to 10 µM; at WT/R232 STING protein, 1 to 10 µM; in the experiment on IRF pathway (Homo sapiens, THP1-Dual, 20 h), 1 to 10 µM.
On to `CC1(C)C(=O)N(Cc2cc(F)cc(F)c2)c2nc(C(=O)NCc3cc4ccccc4o3)ccc21` [Example 182, N-(benzofuran-2-ylmethyl)-1-(3,5-difluorobenzyl)-3,3-dimethyl-2-oxo-2,3-dihydro-1H-pyrrolo[2,3-b]pyridine-6-carboxamide], for which the EC50 is 1 to 10 µM on hSTING (HAQ); 1 to 10 µM on hSTING (H232); over 10 µM with NF-κB pathway (Homo sapiens, THP1-Dual, 20 h); 1 to 10 µM at WT/R232 STING protein; over 10 µM with IRF pathway (Homo sapiens, THP1-Dual, 20 h).
Take `Cc1ccc(CNC(=O)c2ccc3c(n2)N(Cc2cc(F)cc(F)c2)C(=O)C3(C)C)o1` [Example 188, 1-(3,5-difluorobenzyl)-3,3-dimethyl-N-((5-methylfuran-2-yl)methyl)-2-oxo-2,3-dihydro-1H-pyrrolo[2,3-b]pyridine-6-carboxamide]: the EC50 on hSTING (HAQ) was 1 to 10 µM; at hSTING (H232) it was 1 to 10 µM; in the experiment on NF-κB pathway (Homo sapiens, THP1-Dual, 20 h), over 10 µM; on WT/R232 STING protein, 1 to 10 µM; with IRF pathway (Homo sapiens, THP1-Dual, 20 h) it was over 10 µM.
For the compound `CC1(C)C(=O)N(Cc2cc(F)cc(F)c2)c2nc(C(=O)NCc3ccc(F)cc3)ccc21` [Example 189, 1-(3,5-difluorobenzyl)-N-(4-fluorobenzyl)-3,3-dimethyl-2-oxo-2,3-dihydro-1H-pyrrolo[2,3-b]pyridine-6-carboxamide], the EC50 at hSTING (HAQ) is 1 to 10 µM; at hSTING (H232) it was 1 to 10 µM; in the experiment with NF-κB pathway (Homo sapiens, THP1-Dual, 20 h) it was over 10 µM; at WT/R232 STING protein it was at most 1 µM; with IRF pathway (Homo sapiens, THP1-Dual, 20 h) it was over 10 µM.
Regarding `CC1(C)C(=O)N(Cc2cc(F)cc(F)c2)c2nc(C(=O)NCc3ccccc3)ccc21` [Example 191, N-benzyl-1-(3,5-difluorobenzyl)-3,3-dimethyl-2-oxo-2,3-dihydro-1H-pyrrolo[2,3-b]pyridine-6-carboxamide], the EC50 at hSTING (HAQ) was 1 to 10 µM; on hSTING (H232) it was 1 to 10 µM; in the experiment on NF-κB pathway (Homo sapiens, THP1-Dual, 20 h), over 10 µM; at WT/R232 STING protein it was 1 to 10 µM; in the experiment with IRF pathway (Homo sapiens, THP1-Dual, 20 h), over 10 µM.
